Broadly, the IC50 is the concentration at which inhibition is half-maximal. Higher therefore signals lower potency. What is called inhibition is the drop in the measured response relative to a control, in per cent. A higher inhibition goes with strong suppression.

The structures appear in SMILES notation.

Type in all cases: biochemical
The target in assay [1] is T1, PDE3 partially purified from human platelets (Homo sapiens, UniProt Q14432).
T1 construct: PDE3 partially purified from human platelets was used; from tissue; host or cells: human platelets
Kind of assay: PDE3 enzyme inhibition assay ([3H]cAMP hydrolysis, scintillation counting). Conditions: for IC50: varying concentrations 300-1 μM. From the text:
In this example, a racemic mixture of monochloroflosequinan and the sulfone derivative of monochloroflosequinan were independently subjected to biochemical enzyme assays to determine their respective percent inhibition of a variety of phosphodiesterases (PDE1-PDE6). The methods used have been adapted from those described in the scientific literature, see Hidaka and Asano “Human blood platelet 3′:5′ cyclic nucleotide phosphodiesterase. Isolation of low-Km and high Km phosphodiesterase.” Biochem. Biophys. Acta 429:485 (1976); Nicholoson et at. “Differential modulation of tissue function and therapeutic potential of selective inhibitors of cyclic nucleotide phosphodiesterase isoenzymes” Trends Pharmacol. Sci. 12:19 (1991); Cortijo et al. “Investigation into the role of phosphodiesterase IV in bronchorelaxation, including studies with hyman bronchus.” Br. J. Pharmacol. 108:562 (1993); Baehr et al. “Isolation and characterization of cGMP phosphodiesterase from bovine rod outer segments.” J. Biol. Chem. 254:11669 (1979) and Gillespie and Beavo “Inhibition and stimulation of photoreceptor phosphodiesterase by dipyridamole and M&B 22,948” Molecular Pharm. 36:773 (1989). A brief summary of the conditions for each enzyme assay is provided below:
PDE3: PDE3 partially purified from human platelets was used. The compounds were independently incubated with 13 μg PDE3 enzyme and 1.01 μM [^3H]cAMP+cAMP in Tris buffer pH 7.5 for 20 minutes at either 25° C. or 30° C. The reaction was terminated by boiling for 2 minutes, and the resulting AMP was converted to adenosine by addition of 10 mg/ml snake venom nucleotidase and further incubation at 30° C. for 10 minutes. Unhydrolyzed cAMP was bound to AGI-X2 resin, and the remaining [^3H]adenosine in the aqueous phase was quantitated by scintillation counting.

Assay [2] addresses T2, PDE1 partially purified from bovine heart (Bos taurus, UniProt P14100).
T2 construct: PDE1 partially purified from bovine heart was used; from tissue; host or cells: bovine heart
Kind of assay: PDE1 enzyme inhibition assay ([3H]cAMP hydrolysis, scintillation counting). From the text: (§1) In this example, a racemic mixture of monochloroflosequinan and the sulfone derivative of monochloroflosequinan were independently subjected to biochemical enzyme assays to determine their respective percent inhibition of a variety of phosphodiesterases (PDE1-PDE6). The methods used have been adapted from those described in the scientific literature, see Hidaka and Asano “Human blood platelet 3′:5′ cyclic nucleotide phosphodiesterase. Isolation of low-Km and high Km phosphodiesterase.” Biochem. Biophys. Acta 429:485 (1976); Nicholoson et at. “Differential modulation of tissue function and therapeutic potential of selective inhibitors of cyclic nucleotide phosphodiesterase isoenzymes” Trends Pharmacol. Sci. 12:19 (1991); Cortijo et al. “Investigation into the role of phosphodiesterase IV in bronchorelaxation, including studies with hyman bronchus.” Br. J. Pharmacol. 108:562 (1993); Baehr et al. “Isolation and characterization of cGMP phosphodiesterase from bovine rod outer segments.” J. Biol. Chem. 254:11669 (1979) and Gillespie and Beavo “Inhibition and stimulation of photoreceptor phosphodiesterase by dipyridamole and M&B 22,948” Molecular Pharm. 36:773 (1989). […]
PDE1: PDE1 partially purified from bovine heart was used. […] Unhydrolyzed cAMP was bound to AGI-X2 resin, and the remaining [^3H]adenosine in the aqueous phase was quantitated by scintillation counting.

Assay [3] concerns the target T3, PDE2 partially purified from human platelets (Homo sapiens, UniProt O00408).
T3 construct: PDE2 partially purified from human platelets was used; from tissue; host or cells: human platelets
Kind of assay: PDE2 enzyme inhibition assay ([3H]cAMP hydrolysis, scintillation counting).
From the text: as §1
PDE2: PDE2 partially purified from human platelets was used. […] Unhydrolyzed cAMP was bound to AGI-X2 resin, and the remaining [^3H]adenosine in the aqueous phase was quantitated by scintillation counting.

Where [4] appears, read: 100 μM compound, 30° C., 1% DMSO vehicle.
Where [5] appears, read: varying concentrations 300-1 μM.

T1 sequence (Q14432 whole entry): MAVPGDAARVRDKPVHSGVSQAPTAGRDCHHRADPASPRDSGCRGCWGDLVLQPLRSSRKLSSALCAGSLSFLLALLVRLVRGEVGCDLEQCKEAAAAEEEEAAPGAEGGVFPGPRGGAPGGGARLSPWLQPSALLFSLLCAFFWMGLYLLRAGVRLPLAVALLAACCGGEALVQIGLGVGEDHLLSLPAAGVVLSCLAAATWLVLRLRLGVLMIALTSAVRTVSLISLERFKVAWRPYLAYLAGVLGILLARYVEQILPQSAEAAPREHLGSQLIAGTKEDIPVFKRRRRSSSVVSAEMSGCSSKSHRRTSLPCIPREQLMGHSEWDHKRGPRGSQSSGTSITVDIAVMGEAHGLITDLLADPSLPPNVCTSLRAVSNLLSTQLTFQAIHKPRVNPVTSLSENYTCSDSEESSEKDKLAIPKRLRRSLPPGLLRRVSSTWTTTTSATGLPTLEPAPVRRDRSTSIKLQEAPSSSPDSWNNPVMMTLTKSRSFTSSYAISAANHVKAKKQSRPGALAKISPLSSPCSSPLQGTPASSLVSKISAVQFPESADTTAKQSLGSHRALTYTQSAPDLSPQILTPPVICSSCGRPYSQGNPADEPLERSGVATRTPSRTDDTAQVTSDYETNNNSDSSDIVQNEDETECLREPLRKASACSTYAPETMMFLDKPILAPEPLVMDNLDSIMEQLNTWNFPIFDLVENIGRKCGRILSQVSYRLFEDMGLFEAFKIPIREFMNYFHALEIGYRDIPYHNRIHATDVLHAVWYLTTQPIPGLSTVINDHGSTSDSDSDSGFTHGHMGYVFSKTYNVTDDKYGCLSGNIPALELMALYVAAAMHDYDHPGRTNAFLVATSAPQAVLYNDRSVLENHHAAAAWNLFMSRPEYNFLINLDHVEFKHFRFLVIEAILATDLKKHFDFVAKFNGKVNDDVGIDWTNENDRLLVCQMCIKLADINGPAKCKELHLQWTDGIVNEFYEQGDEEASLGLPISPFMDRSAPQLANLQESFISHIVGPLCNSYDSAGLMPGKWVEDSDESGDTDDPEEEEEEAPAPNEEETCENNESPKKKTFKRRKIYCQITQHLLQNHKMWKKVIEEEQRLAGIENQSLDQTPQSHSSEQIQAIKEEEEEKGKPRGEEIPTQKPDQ
T2 sequence (P14100 1-514 isoform P14100-2): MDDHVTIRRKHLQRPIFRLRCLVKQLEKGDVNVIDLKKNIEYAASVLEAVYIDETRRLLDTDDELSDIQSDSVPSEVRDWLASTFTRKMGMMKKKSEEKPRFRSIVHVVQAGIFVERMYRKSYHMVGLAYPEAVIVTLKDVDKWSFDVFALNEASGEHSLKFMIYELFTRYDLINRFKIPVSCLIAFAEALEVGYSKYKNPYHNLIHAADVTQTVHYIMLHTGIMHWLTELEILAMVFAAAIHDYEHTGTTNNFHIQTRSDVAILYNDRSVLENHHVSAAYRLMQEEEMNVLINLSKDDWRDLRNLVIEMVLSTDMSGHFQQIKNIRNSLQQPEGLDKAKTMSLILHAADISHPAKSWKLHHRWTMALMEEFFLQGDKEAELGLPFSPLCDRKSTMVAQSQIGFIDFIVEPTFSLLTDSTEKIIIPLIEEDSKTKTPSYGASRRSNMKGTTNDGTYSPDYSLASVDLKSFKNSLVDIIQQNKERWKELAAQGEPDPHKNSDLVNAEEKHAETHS
T3 sequence (O00408 whole entry): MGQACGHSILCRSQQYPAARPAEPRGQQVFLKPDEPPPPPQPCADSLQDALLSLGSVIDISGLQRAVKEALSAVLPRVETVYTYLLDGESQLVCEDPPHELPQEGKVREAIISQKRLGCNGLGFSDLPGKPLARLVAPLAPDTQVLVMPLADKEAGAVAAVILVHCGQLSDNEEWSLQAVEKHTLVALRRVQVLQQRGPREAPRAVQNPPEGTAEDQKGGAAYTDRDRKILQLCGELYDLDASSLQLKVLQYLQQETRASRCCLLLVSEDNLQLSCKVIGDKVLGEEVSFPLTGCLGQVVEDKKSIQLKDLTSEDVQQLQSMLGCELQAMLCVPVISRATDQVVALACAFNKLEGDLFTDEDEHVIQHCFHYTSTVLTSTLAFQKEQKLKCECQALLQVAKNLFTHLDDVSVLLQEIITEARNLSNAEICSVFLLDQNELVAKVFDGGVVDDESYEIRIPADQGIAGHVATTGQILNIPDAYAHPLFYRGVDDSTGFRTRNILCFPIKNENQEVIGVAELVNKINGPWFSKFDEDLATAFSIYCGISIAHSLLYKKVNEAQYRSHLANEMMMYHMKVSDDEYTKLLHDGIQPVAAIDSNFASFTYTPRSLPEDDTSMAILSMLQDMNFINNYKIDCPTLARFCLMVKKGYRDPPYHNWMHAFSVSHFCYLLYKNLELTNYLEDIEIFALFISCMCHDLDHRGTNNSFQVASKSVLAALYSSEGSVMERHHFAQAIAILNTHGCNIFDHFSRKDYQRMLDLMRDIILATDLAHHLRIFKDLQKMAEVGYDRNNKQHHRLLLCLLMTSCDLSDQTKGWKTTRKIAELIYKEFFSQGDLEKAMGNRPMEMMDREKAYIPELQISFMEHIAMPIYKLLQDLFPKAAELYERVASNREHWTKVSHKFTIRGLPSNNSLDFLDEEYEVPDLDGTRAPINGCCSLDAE

For `Cn1cc([S+]([O-])CCl)c(=O)c2ccc(F)cc21` (racemic) [monochloroflosequinan, 3-chloromethylsulfinyl-7-fluoro-1-methyl-4-quinolone], in assay [1] (setting [4]), the “inhibition of PDE3” value is “Significant inhibition”. Further, the half-maximal inhibitory concentration (IC50) in assay [1] is 28.2 µM; in assay [2] (setting [5]), 65.6 µM; in assay [3] (setting [5]) it was greater than 300 µM. In assay [2] (setting [4]), the “inhibition of PDE1” value was “Significant inhibition”. The “inhibition of PDE2” value in assay [3] (setting [4]) was “Significant inhibition”.

As for `Cn1cc(S(=O)(=O)CCl)c(=O)c2ccc(F)cc21` [monochloroflosequinan sulfone, 3-chloromethylsulfonyl-7-fluoro-1-methyl-4-quinolone], in assay [1] (100 μM compound, 25° C., 1% DMSO vehicle), the inhibition at 100 µM was greater than 50%. Further, the half-inhibitory concentration (IC50) in assay [1] is 95.9 µM.

These data come from patent US6730790B2, “Chlorinated heterocyclic compounds and methods of synthesis” (R.T. Alamo Ventures I. LLC, priority 2002, dated 2004).
